Consider two compounds from article PMC12561453, “Synthesis and Structure–Activity Relationship Study of 2-(amino)quinazolin-4(3H)-one Derivatives as Potential Inhibitors of Methicillin-Resistant Staphylococcus aureus (MRSA)” (Antibiotics, 2025).

Converted amounts (≈) assume the structure as drawn. Where two headings read alike, the source gives them in different places.

The subject of one data set is S. aureus ATCC25923. Put plainly: Broth microdilution dose-response, S. aureus ATCC25923. In kind it is cell-based, Staphylococcus aureus. As to conditions: Staphylococcus aureus, ATCC25923, methicillin-sensitive strain; OD600 after 18–24 h; read-out: ATCC25923 MIC50. An excerpt:
The antistaphylococcal activities (MIC50) of the synthesized compounds were examined via a previously described broth microdilution method against two S. aureus strains: ATCC25923, a methicillin-sensitive reference strain, and JE2, a methicillin-resistant strain of the USA300 lineage (Figure 2, Table 1).
Staphylococcus aureus USA300, a methicillin-resistant strain, was obtained from the Nebraska Transposon Mutant Library. Staphylococcus aureus ATCC25923, a pan-drug-susceptible strain, was purchased from the American Type Culture Collection (ATCC) (Manassas, VA, USA). S. aureus strains were grown in Cation-Adjusted Mueller–Hinton broth (CAMHB) (Difco) at 37 °C. Bacterial strain stocks were stored in vials with 25% glycerol at −80 °C. For each experiment, overnight cultures were prepared by inoculating a frozen bacterial strain stock in 10 mL of CAMHB medium and incubating at 37 °C in a shaking incubator (180 rpm). For the preliminary screen and dose–response experiments, 100 µL of overnight culture was inoculated into 10 mL of fresh CAMHB and incubated for 3 h at 37 °C and 180 rpm.
Antibiotic susceptibility assay was tested according to modified Clinical and Laboratory Standards Institute (CLSI) laboratory guidelines for broth microdilution assays. S. aureus was cultured in CAMHB, and bacterial cells were prepared with an OD600 of 0.005. DRC plates were prepared by adding 40 µL of bacterial suspension to each well, where 10 µL of each compound had been dispensed for […] of two-fold serial dilutions starting at […]. After incubation of the plates at 37 °C for 18–24 h with 5% CO2, the growth of S. aureus was detected by measuring the OD600nm using an Ensight (Revvity) spectrometer (Revvity, Waltham, MA, USA).
Figure 2 In vitro antibacterial activities of 2-(amino)quinazolin-4(3H)-one derivatives. S. aureus ATCC25923 (blue) and USA300 JE (orange) strains were incubated with serial dilutions of 2-(amino)quinazolin-4(3H)-one derivatives (0.19–100 µM) for 18–24 h. The dose–responses were observed by measuring OD600nm. The plots were drawn from each group of strains with nonlinear curve fits.
A general note: Dilution methods test growth across graded concentrations, often in twofold steps.

Another data set deals with hERG (Homo sapiens, UniProt Q12809). In words: hERG binding assay. On the procedure: (§1) Table S1. Results of hERG binding assay and cytotoxicity of 6l and 6y
Sequence of hERG (Q12809 whole entry): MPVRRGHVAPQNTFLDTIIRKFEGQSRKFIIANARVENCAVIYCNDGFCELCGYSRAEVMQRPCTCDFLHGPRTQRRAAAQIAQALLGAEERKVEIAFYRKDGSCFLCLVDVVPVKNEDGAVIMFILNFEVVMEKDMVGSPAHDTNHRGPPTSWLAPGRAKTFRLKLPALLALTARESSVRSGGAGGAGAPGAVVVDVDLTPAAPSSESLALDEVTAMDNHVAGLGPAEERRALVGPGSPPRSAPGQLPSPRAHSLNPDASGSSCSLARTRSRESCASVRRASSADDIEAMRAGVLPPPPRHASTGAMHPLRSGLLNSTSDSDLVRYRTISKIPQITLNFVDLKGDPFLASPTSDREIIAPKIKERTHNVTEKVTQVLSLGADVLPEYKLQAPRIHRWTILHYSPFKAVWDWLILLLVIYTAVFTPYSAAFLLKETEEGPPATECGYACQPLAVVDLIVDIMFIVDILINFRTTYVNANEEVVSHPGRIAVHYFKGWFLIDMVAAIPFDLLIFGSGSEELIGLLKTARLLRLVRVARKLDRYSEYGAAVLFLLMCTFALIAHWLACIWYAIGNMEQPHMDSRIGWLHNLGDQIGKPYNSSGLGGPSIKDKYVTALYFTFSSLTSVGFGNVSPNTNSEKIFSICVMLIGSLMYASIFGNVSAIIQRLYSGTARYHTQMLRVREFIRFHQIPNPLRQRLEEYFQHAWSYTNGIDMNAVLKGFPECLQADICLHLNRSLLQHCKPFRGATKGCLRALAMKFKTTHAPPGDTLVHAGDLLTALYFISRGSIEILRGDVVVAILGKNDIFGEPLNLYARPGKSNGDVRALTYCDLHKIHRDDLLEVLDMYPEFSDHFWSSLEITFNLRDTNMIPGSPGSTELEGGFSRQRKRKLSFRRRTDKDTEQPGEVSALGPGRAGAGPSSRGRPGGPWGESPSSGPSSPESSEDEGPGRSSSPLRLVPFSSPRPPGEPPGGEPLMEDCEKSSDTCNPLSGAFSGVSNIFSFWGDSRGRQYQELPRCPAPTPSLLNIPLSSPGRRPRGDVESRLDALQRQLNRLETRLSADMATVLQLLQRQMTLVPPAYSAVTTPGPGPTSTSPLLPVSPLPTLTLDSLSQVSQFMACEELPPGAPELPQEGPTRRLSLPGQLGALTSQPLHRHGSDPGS
(§2) Compound hERGa CytotoxicityVERO HFL-1 L929 NIH 3T3 CHO-K1
(§3) a % inhibition at 10 μM concentrations. b IC50 values in various mammalian cell lines. […]
On the technique in general: Block of hERG is tested as a sign of cardiac risk.

Data set [1] is described as follows: Cytotoxicity in VERO cells. In kind it is cell-based. As to conditions: African green monkey, VERO cells (kidney cell line). The method, then:
as §1, §2, §3

A short description of data set [2]: Cytotoxicity in HFL-1 cells. In kind it is cell-based. As to conditions: human, HFL-1 cells (embryonic lung cell line). On the procedure: as §1, §2, §3
Data set [3] is described as follows: Cytotoxicity in L929 cells. As to conditions: mouse, L929 cells (NCTC clone 929, fibroblast cell line). In kind it is cell-based. The method, then: as §1, §2, §3
A short description of the next data set: in vitro. In kind it is cell-based. The settings on record: Chinese hamster. On the procedure:
as §1, §2, §3

The nature of data set [4]: Microsomal stability, human. As to conditions: human microsomes. In kind it is in vitro ADME. The method, then:
(§4) Table S2. Result of microsomal stability, plasma protein binding rate, and CYP inhibition of 6l and 6y
(§5) Compound MSa PPBrat human rat human 1A2 2C9 2C19 2D6 3A4
(§6) a % of remaining after 30 min. b plasma protein binding rate (%) at 5 μM concentrations. c % of CYP
(§7) inhibition in human liver microsomes at 10 μM concentrations. […]

The nature of data set [5]: Plasma protein binding, rat. It is filed as in vitro ADME. As to conditions: read-out: PPB rat, plasma protein binding rate (converted). On the procedure:
as §4, §5, §6, §7

Data set [6] is described as follows: Plasma protein binding, human. It is filed as in vitro ADME. As to conditions: read-out: PPB human, plasma protein binding rate (converted). On the procedure:
as §4, §5, §6, §7

In the next data set the target is T1, CYP1A2 (Homo sapiens, UniProt P05177).
T1 construct: from tissue; host or cells: human liver microsomes
T1 sequence (P05177 1-516): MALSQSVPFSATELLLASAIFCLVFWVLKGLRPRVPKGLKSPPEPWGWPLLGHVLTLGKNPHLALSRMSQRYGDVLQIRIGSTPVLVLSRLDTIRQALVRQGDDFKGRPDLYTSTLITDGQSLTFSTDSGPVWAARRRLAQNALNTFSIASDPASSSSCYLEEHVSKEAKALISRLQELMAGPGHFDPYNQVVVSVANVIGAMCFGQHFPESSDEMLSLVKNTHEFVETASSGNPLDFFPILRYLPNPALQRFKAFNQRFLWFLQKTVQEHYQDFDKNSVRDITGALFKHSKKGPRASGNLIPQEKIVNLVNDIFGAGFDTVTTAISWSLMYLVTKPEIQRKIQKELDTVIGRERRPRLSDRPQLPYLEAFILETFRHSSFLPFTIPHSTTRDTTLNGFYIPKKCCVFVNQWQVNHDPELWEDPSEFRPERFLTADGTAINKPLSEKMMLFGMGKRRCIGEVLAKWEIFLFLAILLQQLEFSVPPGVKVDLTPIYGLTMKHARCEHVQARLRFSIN
In words: CYP inhibition in human liver microsomes, 1A2. In kind it is in vitro ADME. The method, then:
as §4, §5, §6, §7
(Liver microsomes are a subcellular fraction often used to study metabolism.)

The next data set has as its target T2, CYP2C9 (Homo sapiens, UniProt P11712).
T2 construct: from tissue; host or cells: human liver microsomes
In words: CYP inhibition in human liver microsomes, 2C9. It is filed as in vitro ADME. On the procedure:
as §4, §5, §6, §7

The next data set deals with T3, CYP2C19 (Homo sapiens, UniProt P33261).
T3 construct: from tissue; host or cells: human liver microsomes
T3 sequence (P33261 whole entry): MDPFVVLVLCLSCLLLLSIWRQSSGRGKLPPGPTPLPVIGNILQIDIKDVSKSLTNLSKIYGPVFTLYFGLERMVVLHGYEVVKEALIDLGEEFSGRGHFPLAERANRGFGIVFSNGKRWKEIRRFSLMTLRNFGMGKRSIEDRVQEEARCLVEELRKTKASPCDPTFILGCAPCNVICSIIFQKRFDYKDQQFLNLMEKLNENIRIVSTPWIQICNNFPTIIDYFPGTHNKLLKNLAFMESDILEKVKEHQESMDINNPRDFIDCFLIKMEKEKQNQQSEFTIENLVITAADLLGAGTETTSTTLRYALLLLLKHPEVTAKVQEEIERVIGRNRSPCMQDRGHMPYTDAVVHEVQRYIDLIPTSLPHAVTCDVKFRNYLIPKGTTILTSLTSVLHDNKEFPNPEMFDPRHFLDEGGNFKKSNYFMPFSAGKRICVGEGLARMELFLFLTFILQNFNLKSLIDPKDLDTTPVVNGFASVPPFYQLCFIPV
Put plainly: CYP inhibition in human liver microsomes, 2C19. It is filed as in vitro ADME. On the procedure: as §4, §5, §6, §7

Data set [7] in a line: Rat pharmacokinetic study. In kind it is in vivo. The settings on record: male rats. The method, then:
Table S3. Rat pharmacokinetic study of 6l and 6y
Parametersa I.V., 2 mg/kg P.O., 10 mg/kg I.V., 5 mg/kg P. O . , 1 0 mg/kg
Cmax ([…]) NA 0.9 NA 0.2
CL (L/h/kg) 0.25 NA 1.8 NA
a All results are mean of experiments using three male rats. b NA: not applicable

The mark [8] stands for this setting: rat, in vivo, iv, I.V., 5 mg/kg.

T2 sequence (P11712 whole entry): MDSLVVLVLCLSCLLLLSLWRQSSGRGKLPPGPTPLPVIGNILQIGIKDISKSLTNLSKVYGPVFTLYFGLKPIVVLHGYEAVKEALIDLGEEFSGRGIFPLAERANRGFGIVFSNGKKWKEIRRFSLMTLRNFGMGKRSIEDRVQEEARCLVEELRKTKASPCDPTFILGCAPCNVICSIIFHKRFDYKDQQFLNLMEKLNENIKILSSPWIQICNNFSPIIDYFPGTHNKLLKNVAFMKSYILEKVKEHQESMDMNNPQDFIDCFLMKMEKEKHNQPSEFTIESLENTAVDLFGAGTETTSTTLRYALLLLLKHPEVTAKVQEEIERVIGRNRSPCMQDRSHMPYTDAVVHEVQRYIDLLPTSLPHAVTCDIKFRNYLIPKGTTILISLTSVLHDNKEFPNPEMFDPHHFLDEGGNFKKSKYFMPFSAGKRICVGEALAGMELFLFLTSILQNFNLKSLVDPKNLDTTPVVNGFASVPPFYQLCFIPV

Consider `O=c1[nH]c(Nc2cc(Cl)cc(Cl)c2)nc2cc(Cl)ccc12` [6l, 7-Chloro-2-((3,5-dichlorophenyl)amino)quinazolin-4(3H)-one], for which the MIC50 (commonly the lowest concentration that inhibits either 50% of growth or 50% of the strains tested, depending on the study) in the data set on S. aureus ATCC25923 came out at 1 µM (≈ 0.341 µg/mL). The inhibition (commonly the percentage by which the read-out fell short of the control) at 10 µM at hERG is 37.8%; at CYP1A2, 15.1%; on CYP2C9, 18.2%; against CYP2C19, < 1%. The concentration for half-maximal inhibition (IC50) (commonly the midpoint of a concentration-inhibition curve) was found to be 8.5 µM in data set [1], 7.5 µM in data set [2], 31.4 µM in data set [3] and 11 µM in “in vitro”. Moreover, in data set [4], the “MS human, % of remaining after 30 min” value amounted to 99.3%. Moreover, the fraction unbound at 5 μM in data set [5] was 0.001; in data set [6], 0.002. Also, the AUC (usually concentration integrated over time) in data set [7] (I.V., 2 mg/kg) came out at 8.5 µg·h/mL; in data set [7] (P.O., 10 mg/kg), 6.6 µg·h/mL. In [7] (I.V., 2 mg/kg), this compound gave a CL of 0.25 L/h/kg. Moreover, the T1/2 in data set [7] (I.V., 2 mg/kg) was determined as 2.2 h; in [7] (P.O., 10 mg/kg), 5.7 h. The distribution volume (Vss) – broadly, the apparent volume that relates the amount in the body to the concentration in plasma or blood – in [7] (I.V., 2 mg/kg) came out at 1.6 L/kg. In data set [7] (P.O., 10 mg/kg), this compound came in with a Cmax of 0.9. The compound also registered a Ft in [7] (P.O., 10 mg/kg) of 15.6%. The Tmax (as a rule, the time from dosing to the highest level) in data set [7] (P.O., 10 mg/kg) amounted to 2.5 h.
For the compound `O=c1[nH]c(NCc2ccc(F)c(F)c2)nc2cc(Cl)ccc12` [6y, 7-Chloro-2-((3,4-difluorobenzyl)amino)quinazolin-4(3H)-one], the MIC50 with S. aureus ATCC25923 was determined as 0.36 µM (≈ 0.116 µg/mL). The inhibition at 10 µM at hERG was found to be 11.4%; against CYP1A2, 92.5%; against CYP2C9 it was 91%; at CYP2C19 it was 93.6%. Moreover, the concentration for half-maximal inhibition (IC50) was 50.5 µM in [1], 50.7 µM in data set [2], 79 µM in data set [3] and 51.6 µM in “in vitro”. The “MS human, % of remaining after 30 min” value in data set [4] amounted to 42.9%. Also, the results for the fraction unbound at 5 μM in data set [5] and in data set [6] were 0.005 and 0.002, respectively. Besides, the Ft in [7] (P.O., 10 mg/kg) was determined as 33.4%. Further, the clearance – broadly, a measure of how efficiently the substance is removed, as volume per time – in data set [7] (setting [8]) is 30 mL/min/kg. In addition, the half-life (commonly the time needed for the level to fall by half in the phase considered) in [7] (setting [8]) is 510 min; in data set [7] (rat, in vivo, po, P.O., 10 mg/kg), 216 min. The area under the curve (AUC) in data set [7] (rat, in vivo, iv, I.V., 5 mg/kg, read-out: AUC) worked out at 2.8 µg·h/mL; in data set [7] (rat, in vivo, po, P.O., 10 mg/kg, read-out: AUC), 1.9 µg·h/mL. Besides, the Vd in data set [7] (rat, in vivo, iv, I.V., 5 mg/kg, read-out: Vss) worked out at 5.2 L/kg. Further, the Cmax in [7] (rat, in vivo, po, P.O., 10 mg/kg, read-out: Cmax) is 200 ng/mL. In addition, the time of peak concentration (Tmax) in [7] (rat, in vivo, po, P.O., 10 mg/kg, read-out: Tmax) amounted to 5.3 h.
